From ChEMBL document CHEMBL1687943, “Synthesis of new glycyrrhetinic acid derived ring A azepanone, 29-urea and 29-hydroxamic acid derivatives as selective 11β-hydroxysteroid dehydrogenase 2 inhibitors” (Bioorg Med Chem, 2011) come the findings set out here.

A value given as a limit tells only on which side of the number the result lay.

Test [1] concerns the target T1, 11-beta-hydroxysteroid dehydrogenase type 2 (Homo sapiens, UniProt P80365).
T1 sequence (P80365 whole entry): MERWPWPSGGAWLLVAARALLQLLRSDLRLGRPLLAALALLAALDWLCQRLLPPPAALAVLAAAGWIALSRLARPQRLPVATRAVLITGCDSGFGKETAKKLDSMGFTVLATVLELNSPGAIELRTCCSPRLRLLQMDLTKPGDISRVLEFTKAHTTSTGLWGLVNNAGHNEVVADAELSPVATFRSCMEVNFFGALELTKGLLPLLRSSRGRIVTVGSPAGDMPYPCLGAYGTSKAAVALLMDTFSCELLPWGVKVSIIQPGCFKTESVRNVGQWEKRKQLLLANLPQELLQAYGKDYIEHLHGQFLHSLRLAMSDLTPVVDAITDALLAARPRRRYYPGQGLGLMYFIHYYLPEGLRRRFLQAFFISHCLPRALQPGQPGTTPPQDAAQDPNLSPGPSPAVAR
The test can be described thus: Inhibition of human 11beta-HSD2 expressed in HEK293 cells assessed as conversion of [1,2,6,7-[3H]cortisol to cortisone after 10 mins by scintillation counting. The class given is cell-based.

Test [2] deals with T2, 11-beta-hydroxysteroid dehydrogenase type 2 (Homo sapiens) (UniProt P80365).
T2 sequence (whole entry): T1 sequence (P80365 whole entry)
Particulars: HEK293, at 200 nM.
Description: Inhibition of human 11beta-HSD2 expressed in HEK293 cells assessed as residual conversion of [1,2,6,7-[3H]cortisol to cortisone at 200 nM after 10 mins by scintillation counting

For test [3], the target named is T3, 11-beta-hydroxysteroid dehydrogenase 1 (Homo sapiens, UniProt P28845). Particulars: HEK293, at 200 nM.
Target sequence in this assay (P28845 whole entry, looked up): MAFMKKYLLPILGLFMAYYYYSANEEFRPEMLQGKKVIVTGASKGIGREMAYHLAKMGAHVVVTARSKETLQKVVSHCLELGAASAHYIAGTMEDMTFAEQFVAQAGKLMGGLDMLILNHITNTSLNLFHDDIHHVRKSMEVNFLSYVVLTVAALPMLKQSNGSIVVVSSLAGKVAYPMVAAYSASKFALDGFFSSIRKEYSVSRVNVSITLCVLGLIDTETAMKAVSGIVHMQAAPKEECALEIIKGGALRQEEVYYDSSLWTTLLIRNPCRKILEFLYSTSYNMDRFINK
Description: Inhibition of human recombinant 11beta-HSD1 expressed in HEK293 cells assessed as residual conversion of [1,2-[3H]cortisone to cortisol at 200 nM after 10 mins by scintillation counting
The target of test [4] is T3, 11-beta-hydroxysteroid dehydrogenase 1. The test can be described thus: Inhibition of human recombinant 11beta-HSD1 expressed in HEK293 cells assessed as conversion of [1,2-[3H]cortisone to cortisol after 10 mins by scintillation counting. In kind it is cell-based.
Target sequence in this assay (P28845 whole entry): as the sequence (P28845 whole entry, looked up) above
Test [5] deals with T2, 11-beta-hydroxysteroid dehydrogenase type 2 (Homo sapiens). To be noted: HEK293, at 1000 nM.
Description: Inhibition of human 11beta-HSD2 expressed in HEK293 cells assessed as residual conversion of [1,2,6,7-[3H]cortisol to cortisone at 1000 nM after 10 mins by scintillation counting
The target of test [6] is T3, 11-beta-hydroxysteroid dehydrogenase 1. Particulars: HEK293, at 1000 nM.
Target sequence in this assay (P28845 whole entry, looked up): as above
Description: Inhibition of human recombinant 11beta-HSD1 expressed in HEK293 cells assessed as residual conversion of [1,2-[3H]cortisone to cortisol at 1000 nM after 10 mins by scintillation counting
Test [7] shares this target. Particulars: HEK293, at 1 µM.
Target sequence in this assay (P28845 whole entry, looked up): as above
Description: Inhibition of human recombinant 11beta-HSD1 expressed in HEK293 cells assessed as conversion of [1,2-[3H]cortisone to cortisol at 1 uM after 10 mins by scintillation counting

The term IC50 denotes the concentration that inhibits the measured activity by half. As a reminder, the residual activity is the signal under treatment as a percentage of the control signal. For `CC1(C)[C@@H](Oc2noc(=O)[nH]2)CC[C@]2(C)[C@H]3C(=O)C=C4[C@@H]5C[C@@](C)(NC(N)=O)CC[C@]5(C)CC[C@@]4(C)[C@]3(C)CC[C@@H]12`, the figures for the IC50 in test [1] and in test [4] were over 4 µM and over 40 µM, respectively. Besides, the residual activity amounted to 24% in test [2] and 81% in test [3].

Consider `CC1(C)[C@@H](O)CC[C@]2(C)C3=CC(=O)[C@H]4[C@@H]5C[C@@](C)(C(=O)O)CC[C@]5(C)CC[C@@]4(C)[C@]3(C)CC[C@@H]12`, for which the values for the residual activity in test [2] and in test [3] were 85% and 77%, respectively.

For `CC(=O)O[C@H]1CC[C@]2(C)[C@H]3C(=O)C=C4[C@@H]5C[C@@](C)(NC(=O)NCCO)CC[C@]5(C)CC[C@@]4(C)[C@]3(C)CC[C@H]2C1(C)C`, the residual activity in test [2] was 38%; in test [3], 97%.

For the compound `CC1(C)/C(=N/O)CC[C@]2(C)[C@H]3C(=O)C=C4[C@@H]5C[C@@](C)(C(=O)O)CC[C@]5(C)CC[C@@]4(C)[C@]3(C)CC[C@@H]12`, the residual activity in test [5] is 1%.

Regarding `CN(O)C(=O)[C@@]1(C)CC[C@]2(C)CC[C@]3(C)C(=CC(=O)[C@@H]4[C@@]5(C)CCC(=O)NC(C)(C)[C@@H]5CC[C@]43C)[C@@H]2C1`, in test [3], the residual activity is 73%. In addition, in test [4], the IC50 was over 40 µM.

`CC(=O)N[C@H]1CC[C@]2(C)[C@H]3C(=O)C=C4[C@@H]5C[C@@](C)(C(=O)O)CC[C@]5(C)CC[C@@]4(C)[C@]3(C)CC[C@H]2C1(C)C`: the residual activity amounted to 0.2% in test [5] and 36% in test [6].

With `CC1(C)C(=O)CC[C@]2(C)[C@H]3C(=O)C=C4[C@@H]5C[C@@](C)(C(=O)O)CC[C@]5(C)CC[C@@]4(C)[C@]3(C)CC[C@@H]12`, the residual activity in test [6] worked out at 36%.

In the case of `CC(=O)O[C@H]1CC[C@]2(C)[C@H]3C(=O)C=C4[C@@H]5C[C@@](C)(NC(=O)NO)CC[C@]5(C)CC[C@@]4(C)[C@]3(C)CC[C@H]2C1(C)C`, the residual activity in test [2] amounted to 34%; in test [3], 92%.

With `CC(=O)O[C@H]1CC[C@]2(C)[C@H]3C(=O)C=C4[C@@H]5C[C@@](C)(NC(=O)NS(C)(=O)=O)CC[C@]5(C)CC[C@@]4(C)[C@]3(C)CC[C@H]2C1(C)C`, the residual activity was 20% in test [2] and 90% in test [3].

In the case of `CC(=O)O[C@H]1CC[C@]2(C)[C@H]3C(=O)C=C4[C@@H]5C[C@@](C)(NC(=O)N(CCO)CCO)CC[C@]5(C)CC[C@@]4(C)[C@]3(C)CC[C@H]2C1(C)C`, the residual activity in test [2] was 93%; in test [3], 102%.

The term inhibition denotes the relative decrease from the control value, in per cent. A low value points to a weak effect. In test [7], `CC1(C)[C@@H](O)CC[C@]2(C)[C@H]3C(=O)C=C4[C@@H]5C[C@@](C)(C(=O)O)CC[C@]5(C)CC[C@@]4(C)[C@]3(C)CC[C@@H]12` had an inhibition of 83.9%. For the same compound, the residual activity in test [6] was found to be 16%.

For the compound `CC1(C)NC(=O)CC[C@]2(C)[C@H]3C(=O)C=C4[C@@H]5C[C@@](C)(C(=O)O)CC[C@]5(C)CC[C@@]4(C)[C@]3(C)CC[C@@H]12`, the residual activity in test [5] turned out to be 21%; in test [6] it was 43%.

With `CC(=O)O[C@H]1CC[C@]2(C)[C@H]3C(=O)C=C4[C@@H]5C[C@@](C)(NC(=O)N(C)O)CC[C@]5(C)CC[C@@]4(C)[C@]3(C)CC[C@H]2C1(C)C`, the residual activity in test [2] amounted to 110%; in test [3], 96%.

Take `CC1(C)C(=O)CC[C@]2(C)[C@H]3C(=O)C=C4[C@@H]5C[C@@](C)(NC(N)=O)CC[C@]5(C)CC[C@@]4(C)[C@]3(C)CC[C@@H]12`: in test [4], the IC50 is over 10 µM.

On to `CC(=O)O[C@H]1CC[C@]2(C)[C@H]3C(=O)C=C4[C@@H]5C[C@@](C)(C(=O)O)CC[C@]5(C)CC[C@@]4(C)[C@]3(C)CC[C@H]2C1(C)C`, for which the residual activity in test [6] stood at 12%.

Turning to `CC1(C)[C@@H](OC(=O)CCC(=O)O)CC[C@]2(C)[C@H]3C(=O)C=C4[C@@H]5C[C@@](C)(C(=O)O)CC[C@]5(C)CC[C@@]4(C)[C@]3(C)CC[C@@H]12`, in test [6], the residual activity stood at 12%.
